Test results published in patent US20190365697A1, “Method for Treating Liver Dysfunction” (PROFEAT BIOTECHNOLOGY CO., LTD., priority 2017, published 2019).

Test system: dogs, whose liver functions were not improved after the administration of SAMe
Assay: Administration of SAMe followed by administration of Composition A1 to dogs; serum ALT, AST
Format: in vivo
Settings: SAMe alone to dogs, clinically observed
Method: Therefore, Composition A1 was administered to 3 dogs, whose liver functions were not improved after the administration of SAMe. And the serum biochemistry values related to the liver function, ALT, AST and ALKP, were examined.

SMILES: C[S+](CC[C@H](N)C(=O)[O-])C[C@H]1O[C@@H](n2cnc3c(N)ncnc32)[C@H](O)[C@@H]1O (stereo partly shown) [SAMe, S-adenosylmethionine]
- improvement of liver functions: liver functions still cannot be improved
